{"source": "patent US20210205264A1", "about": "“USE OF DELTA-TOCOTRIENOL FOR TREATING CANCER” (H. LEE MOFFITT CANCER CENTER & RESEARCH INSTITUTE INC., priority 2018, published 2021)", "key": {"[1]": {"test_system": "intestinal stem cells of ApcMin/+ mice", "test": "Caspase 3 staining of intestinal crypts in ApcMin/+ mice", "assay_type": "in vivo", "conditions": "small intestinal crypts of ApcMin/+ mice", "from_the_text": "(§1) Although substantial preclinical evidence exists regarding the preventive activity of d-T3 and g-T3 in various types of cancers, there is no report of d-T3 prevention of colon cancer despite evidence of activity in colon cell lines and xenograft models. […] Treatment with aspirin alone reduced adenoma formation by 38%, and treatment with d-T3 alone reduced adenoma formation by 44%, while treatment with the combination of aspirin and d-T3 reduced adenoma formation by 58%."}, "human CCSCs": {"test_system": "human CCSCs", "test": "Orthotopic (cecum) model of luciferase expressing human CCSCs in NOD-SCID mice", "assay_type": "in vivo", "protocol": "FIGS. 8A, 8B, 8C, and 8D show growth of cecal tumor volume (FIGS. 8A & 8B) and liver metastasis score (FIGS. 8C & 8D) in orthotopic model of CCSCs after treatment with vehicle, aspirin, d-T3, and aspirin+d-T3.\nIn vivo model of human CCSC were developed by implanting the stably transfected luciferase expressing CCSCs in the cecum of NOD-SCID mice. In this model, tumor growth, metastasis, and survival are monitored twice weekly by IP injection of luciferin (150 mg/kg body weight) and imaged using the IVIS 200 Bioluminescence imaging system. […] These findings strongly indicate that d-T3 targets CCSCs and enhances the ability of aspirin to target these cells."}, "BID": {"test_system": "BID", "test": "Activation of BID (tBID) by Western blotting in CCSCs", "assay_type": "cell-based, human", "conditions": "24-hour treatment; aspirin 5 mM, d-T3 50 μM", "protocol": "FIGS. 10A, 10B, 10C, and 10D show induction of apoptosis measured by flow cytometry (FIG. 10A) and confocal microscopy (FIG. 10B) in CCSCs after treatment with vehicle, aspirin, d-T3, and aspirin+d-T3. Effect of BID inhibitor on apoptosis in CCSCs after treatment with aspirin or d-T3 (FIG. 10C). Induction oft-BID in CCSCs after treatment with vehicle, aspirin, d-T3, and aspirin+d-T3 (FIG. 10D).\nd-T3 can induce selective killing of CCSCs through the BH3 interacting-domain death agonist (BID). […] It should be noted that these in vitro results are consistent with the in vivo observation of the selective induction of apoptosis in APC mutant colon crypt cells in the ApcMin/+ mice but not in the normal intestinal cells of the AOM rat CRC model or NOD/SCID mice. […] Although the proapoptotic activity of d-T3 is a consistent observation of d-T3 anticancer activity in all of the published reports, the mechanism by which d-T3 induces apoptosis is poorly understood. Apoptotic death is regulated by the death receptor (extrinsic) and mitochondrial (intrinsic) pathways. […] To obtain preliminary information regarding the mechanisms by which d-T3 induces apoptosis in CCSCs, the activation of BID was measured after 24-hour treatment with vehicle, aspirin (5 mM), d-T3 (50 μM), and aspirin combined with d-T3 in CCSCs by Western blotting."}, "NCM-460": {"test_system": "NCM-460", "test": "Apoptosis induction in NCM-460", "assay_type": "cell-based"}, "[2]": {"set-up": "species or system humans", "conditions": "in vivo", "protocol": "Two phase I dose-escalation studies were performed determining safety, pharmacokinetics, and pharmacodynamics after twice daily oral administration of d-T3 for 14 consecutive days before surgery in patients with resectable pancreatic exocrine neoplasia and in healthy individuals. […] Based on experience from clinical trials and in animal studies, a dose of 400 mg twice daily was selected for the trial. It should be noted that d-T3 concentration is several times higher in fatty tissues such as the pancreas and colon."}, "[3]": {"test_system": "MiaPaCa-2 cells stably expressing hCAS", "test": "Cell death in MiaPaCa-2 cells stably over-expressing hCAS", "assay_type": "cell-based, human", "conditions": "hCAS over-expression, p<0.02", "from_the_text": "To determine whether hCAS over-expression can rescue from δ-T3 effects, MiaPaCa-2 cells stably expressing hCAS were generated by transfecting these cells with the hCAS gene-containing plasmid pCMV6-AC-GFP (Cat #RG211478, […]) and selecting the cells stably expressing hCAS under G418 pressure. MiaPaCa-2 cells expressing the same plasmid without the hCAS gene were also generated as empty vector control. […] The inability of over-expression to entirely overcome the effect of δ-T3 treatment further illustrates the robustness of a δ-T3 therapeutic approach."}, "ApcMin/+ mice": {"test_system": "ApcMin/+ mice", "test": "Adenoma (intestinal polyp) formation in ApcMin/+ mice", "assay_type": "in vivo", "from_the_text": "as §1, with “FIGS. 1A and 1B show the number of intestinal polyps (FIG. 1A) and H&E staining of polyps (FIG. 1B) in ApcMin/+ mice treated with vehicle (V), aspirin (Asp), d-T3, and combination of aspirin+d-T3. Black dots in FIG. 1B point out polyps in the intestine. Although” for “Although”"}, "CCSCs": {"test_system": "CCSCs", "test": "miRNA profiles in CCSCs", "assay_type": "cell-based, human", "conditions": "24-hour treatment; aspirin 5 mM, d-T3 10 μM", "from_the_text": "Given the results, and without intending to be bound by any theory, it appears that the induction of apoptosis can be one mechanism by which d-T3 prevents CRC and augments CRC prevention activity. BID knockout can diminish this effect. The biorepository as well as materials generated from studies can be used to explore other mechanisms of d-T3 action such as anti-inflammatory, mediation of the immune system, anti-angiogenesis, and alterations in metabolism. To this end, miRNA profiles were conducted that are altered with d-T3, aspirin, and d-T3 with aspirin treatment in CCSCs. To discover early miRNAs that are likely to influence activity, these cells were deliberately treated with doses of these agents at a duration when there were no phenotypic changes of apoptosis."}, "[4]": {"test_system": "Oct4, Nanog, Sox2, KLF4, c-myc, c-PARP", "test": "Western blot of stem cell transcription factors and c-PARP in CCSCs", "assay_type": "cell-based, human"}, "MiaPaCa-2 cell": {"test_system": "MiaPaCa-2 cell", "test": "MiaPaCa-2 cell viability at increasing concentrations", "assay_type": "cell-based, human"}, "[5]": {"test_system": "colon cancer stem cells (CCSC)", "test": "d-T3 IC50 in colon cancer stem cells", "assay_type": "cell-based, human", "conditions": "5 days treatment, daily fresh media change"}}, "note": "pIC50: −log10 of the molar value."}
{"smiles": "CC(C)=CCC/C(C)=C/CC/C(C)=C/CC[C@]1(C)CCc2cc(O)cc(C)c2O1", "note": "[d-T3, δ-tocotrienol]", "values": [{"measurement": "apoptosis detected by caspase 3 staining", "setting": "[1]", "result": "markedly induced apoptosis"}, {"measurement": "growth of human CRC stem cells (cecal tumor)", "setting": "human CCSCs", "result": "inhibited"}, {"measurement": "metastases of human CRC stem cells", "setting": "human CCSCs; liver metastasis", "result": "inhibited"}, {"measurement": "activation of tBID", "setting": "BID", "result": "significantly activated"}, {"measurement": "apoptosis", "setting": "NCM-460", "result": "no effect"}, {"measurement": "AUC", "setting": "[2]; human, po", "result": "≤ 175", "unit": "µM·h"}, {"measurement": "Cmax", "setting": "[2]; human, po", "result": "≤ 17", "unit": "µM"}, {"measurement": "half-life", "setting": "[2]; human, po", "result": "approximately 4 hours"}, {"measurement": "dose-limiting toxicities", "setting": "[2]", "result": "no dose-limiting toxicities"}, {"measurement": "cancer cell death versus the hCAS vehicle", "setting": "[3]", "result": "induces significant cancer cell death"}, {"measurement": "reduced adenoma formation", "setting": "ApcMin/+ mice", "result": 44, "unit": "%"}, {"measurement": "down-regulation of miRNAs compared with vehicle (number)", "setting": "CCSCs", "result": 9, "unit": "miRNAs"}, {"measurement": "up-regulation of miRNAs compared with vehicle (number)", "setting": "CCSCs", "result": 7, "unit": "miRNAs"}, {"measurement": "expression of Oct4, Nanog, Sox2, KLF4, and c-myc", "setting": "[4]", "result": "downregulation"}, {"measurement": "expression of c-PARP", "setting": "[4]", "result": "upregulation"}, {"measurement": "cell killing at 100 μM concentration", "setting": "MiaPaCa-2 cell; 100 μM", "result": "killing almost all cells"}, {"measurement": "effect on cell viability", "setting": "MiaPaCa-2 cell; increasing concentrations", "result": "most potent"}, {"measurement": "pIC50", "setting": "[5]", "result": 5.30}]}
